Drawing on patent US12331022B2, “Spiropiperidine allosteric modulators of nicotinic acetylcholine receptors” (Merck Sharp & Dohme LLC, priority 2019, dated 2025), this text covers EC50 for 23 compounds.

Read-outs that look alike come from different tables or passages of the source.

This experiment has as its target T1, human α7 nAChR (Homo sapiens, UniProt P36544).
T1 construct: host or cells: HEK
In words: Automated patch-clamp electrophysiology functional assay (Assay A). The class given is cell-based. The conditions noted are these: HEK cell line stably expressing human RIC-3 and human α7, IonFlux HT whole-cell population patch, with or without 40 μM acetylcholine. The procedure:
The α7 nAChR positive allosteric modulator (PAM) activity of the present compounds may be tested using assays known in the art. The α7 nAChR PAMs described herein have activities in an automated patch-clamp electrophysiology functional assay as described in the examples. The assay was performed using the IonFlux HT in a whole-cell, population patch configuration. See Golden et al. Assay Drug Dev. Technol. (2011) 9:608-619. The compounds were assessed for their ability to modulate the function of the human α7 nAChR stably expressed in a HEK cell line both in the presence, and in the absence of the natural α7 agonist acetylcholine. By performing a series of such measurements at different concentrations, the effective concentration of the α7 nAChR PAMs (EC50) was determined. See Spencer et al. Assay Drug Dev. Technol. (2012) 10:313-324.
Direct activation of α7 (agonism), and potentiation of acetylcholine-evoked α7 currents was determined as follows:
Automated patch-clamp electrophysiology was performed using the IonFlux HT (Fluxion Biosciences Inc., San Francisco, CA) in the whole-cell, population patch configuration. Test compounds were assessed for their ability to modulate the function of the α7 nicotinic acetylcholine receptor both in the presence, and in the absence of the natural α7 agonist acetylcholine. A HEK cell line stably expressing both human RIC-3 and human α7 (PrecisION hnAChR α7/RIC-3, Eurofins Pharma, St. Charles, MO) was cultured in 175 cm^2 triple-layer tissue culture flasks to no more than 90% confluency in DMEM/F-12 growth media supplemented with 10% heat-inactivated fetal bovine serum, 1% non-essential amino acids, 0.625 μg/mL Puromycin, and 400 μg/mL Geneticin. Immediately prior to assay, cells were detached by first aspirating growth media, rinsing with Dulbecco's phosphate buffered saline, and then adding 10 mL of Accutase (Innovative Cell Technologies, San Diego, CA) to the flask and then incubating at 37° C. for 5 minutes. Detached cells were then recovered by the addition of 40 mL of CHO-serum-free media supplemented with 25 mM HEPES, and rocked gently in a 50 mL conical tube for 20 minutes prior to patch-clamp assay. After recovery, cells were pelleted by centrifugation at 1,000 RPM for 1 minute in a compact bench top centrifuge; recovery media was aspirated and cells were resuspended in external recording solution (150 mM NaCl, 5 mM KCl, 2 mM CaCl2, 1 mM MgCl2, 10 mM HEPES, 12 mM dextrose) to a density of 5.0×10^6 cells/mL. The cell suspension was added to the cell inlet wells on an IonFlux HT population patch plate which had previously been rinsed and primed with deionized H2O. Test compounds were serially diluted in DMSO and then resuspended to the final test concentration in external recording solution, with, or without 40 μM acetylcholine added to the external recording solution; test compounds were then transferred to the IonFlux HT population patch plate. Internal recording solution (110 mM TrisPO4, 28 mM TrisBase, 0.1 mM CaCl2, 2 mM MgCl2, 11 mM EGTA, 4 mM MgATP) was added to the internal recording solution inlet wells on the IonFlux HT patch plate previously loaded with cells and test compounds, and the plate loaded into the IonFlux HT instrument. A protocol was executed on the IonFlux HT to trap the cells, break into the cells, and establish the whole-cell recording configuration; cells were voltage-clamped at a holding potential of −60 mV for the duration of the experiment, all experiments were conducted at room temperature, and the IonFlux HT injection pressure was 8 psi for solution applications. Upon establishing the whole-cell configuration, external recording solution was perfused into the recording chambers for 120 seconds and then 40 μM acetylcholine was applied for 1 second and immediately washed off with external recording solution for 60 seconds. […]
A general note: The patch-clamp technique gives a direct electrical read-out from membranes.

T1 sequence (P36544 23-502): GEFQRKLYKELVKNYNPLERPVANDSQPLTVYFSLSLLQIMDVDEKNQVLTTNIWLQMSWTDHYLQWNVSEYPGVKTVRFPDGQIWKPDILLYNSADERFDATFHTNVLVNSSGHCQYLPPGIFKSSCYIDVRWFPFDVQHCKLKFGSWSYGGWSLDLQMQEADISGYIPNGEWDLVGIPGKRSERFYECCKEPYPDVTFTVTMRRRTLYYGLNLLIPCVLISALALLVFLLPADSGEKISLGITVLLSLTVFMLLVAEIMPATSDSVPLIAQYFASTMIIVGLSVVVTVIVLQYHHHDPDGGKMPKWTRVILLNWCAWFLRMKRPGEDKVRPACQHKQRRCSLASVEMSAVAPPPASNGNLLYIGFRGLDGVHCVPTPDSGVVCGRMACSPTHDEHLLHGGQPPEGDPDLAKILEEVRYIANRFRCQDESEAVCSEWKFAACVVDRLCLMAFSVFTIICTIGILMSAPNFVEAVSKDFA

Take `COc1ccc(OC[C@@H]2CC23CCN(S(N)(=O)=O)CC3)c(OC)n1` [Example A1, (1R)-1-{[(2,6-dimethoxypyridin-3-yl)oxy]methyl}-6-azaspiro[2.5]octane-6-sulfonamide]: the EC50 runs as follows: (read-out: α7 nAChR EC50) 6200 nM; (read-out: α7 nAChR Potency) 5000 to 50000 nM.

In the case of `NS(=O)(=O)N1CCC2(CC1)CC2COc1ccc(F)cc1C(F)(F)F` (single isomer, unassigned) [Example A7, 1-{[4-fluoro-2-(trifluoromethyl)phenoxy]methyl}-6-azaspiro[2.5]octane-6-sulfonamide], the EC50 was 1200 nM (read-out: α7 nAChR EC50) and 500 to 5000 nM (read-out: α7 nAChR Potency).

For `NS(=O)(=O)N1CCC2(CC1)C[C@H]2COc1cccc(N2CCOCC2)n1` [Example 16, (1R)-1-({[6-(Morpholin-4-yl)pyridin-2-yl]oxy}methyl)-6-azaspiro[2.5]octane-6-sulfonamide], the EC50 was 100 nM (read-out: α7 nAChR EC50) and 100 to 500 nM (read-out: α7 nAChR Potency).

Regarding `COc1ccc(Cl)cc1NC(=O)[C@@H]1CC12CCN(S(N)(=O)=O)CC2` [Example 13, (1R)—N-(5-Chloro-2-methoxyphenyl)-6-sulfamoyl-6-azaspiro[2.5]octane-1-carboxamide], the EC50 (read-out: α7 nAChR EC50) was found to be 200 nM and the EC50 (read-out: α7 nAChR Potency) was in the range of 100 to 500 nM.

In the case of `NS(=O)(=O)N1CCC2(CC1)C(CSc1ccc(F)cc1C(F)(F)F)C2(F)F` (centres unmarked) [Example 17, 1,1-Difluoro-2-({[4-fluoro-2-(trifluoromethyl)phenyl]sulfanyl}methyl)-6-azaspiro[2.5]octane-6-sulfonamide], the EC50 is 720 nM (read-out: α7 nAChR EC50) and 500 to 5000 nM (read-out: α7 nAChR Potency).

Regarding `Cc1ccc(C)c(NC[C@@H]2C(F)(F)C23CCN(S(N)(=O)=O)CC3)c1` [Example A60, (2R)-2-{[(2,5-dimethylphenyl)amino]methyl}-1,1-difluoro-6-azaspiro[2.5]octane-6-sulfonamide], the EC50 (read-out: α7 nAChR EC50) turned out to be 11 nM and the EC50 (read-out: α7 nAChR Potency) is no more than 100 nM.

As for `NS(=O)(=O)N1CCC2(CC1)C[C@H]2COc1noc(-c2ccccc2)n1` [Example 4, (1R)-1-{[(5-Phenyl-1,2,4-oxadiazol-3-yl)oxy]methyl}-6-azaspiro[2.5]octane-6-sulfonamide], the EC50 runs as follows: (read-out: α7 nAChR EC50) 580 nM; (read-out: α7 nAChR Potency) 500 to 5000 nM.

With `NS(=O)(=O)N1CCC2(CC1)C(COc1ccnc(OCC(F)(F)F)c1)C2(F)F` (single isomer, unassigned) [Example A33, 1,1-difluoro-2-({[2-(2,2,2-trifluoroethoxy)pyridin-4-yl]oxy}methyl)-6-azaspiro[2.5]octane-6-sulfonamide], the EC50 is 20 nM (read-out: α7 nAChR EC50) and no more than 100 nM (read-out: α7 nAChR Potency).

Take `Cc1cccc(OC[C@@H]2CC23CCN(S(N)(=O)=O)CC3)n1` [Example A48, (1R)-1-{[(6-methylpyridin-2-yl)oxy]methyl}-6-azaspiro[2.5]octane-6-sulfonamide]: the EC50 reads like this: (read-out: α7 nAChR EC50) 1700 nM; (read-out: α7 nAChR Potency) 500 to 5000 nM.

For the compound `Cn1nc(C(F)(F)F)cc1OCC1C(F)(F)C12CCN(S(N)(=O)=O)CC2` (single isomer, unassigned) [Example A12, 1,1-difluoro-2-({[1-methyl-3-(trifluoromethyl)-1H-pyrazol-5-yl]oxy}methyl)-6-azaspiro[2.5]octane-6-sulfonamide], the EC50 was 4200 nM (read-out: α7 nAChR EC50) and 500 to 5000 nM (read-out: α7 nAChR Potency).

On to `NS(=O)(=O)N1CCC2(CC1)C[C@@H]2COc1cccc(OCC2CC2)n1` [Example A18, (1S)-1-({[6-(cyclopropylmethoxy)pyridin-2-yl]oxy}methyl)-6-azaspiro[2.5]octane-6-sulfonamide], for which the EC50 reads like this: (read-out: α7 nAChR EC50) 300 nM; (read-out: α7 nAChR Potency) 100 to 500 nM.

Regarding `COc1cc(F)ccc1OC[C@@H]1CC12CCN(S(N)(=O)=O)CC2` [Example A6, (1R)-1-[(4-fluoro-2-methoxyphenoxy)methyl]-6-azaspiro[2.5]octane-6-sulfonamide], the EC50 is 940 nM (read-out: α7 nAChR EC50) and 500 to 5000 nM (read-out: α7 nAChR Potency).

On to `CS(=O)(=O)c1cccc(OC[C@@H]2CC23CCN(S(N)(=O)=O)CC3)n1` [Example A45, (1R)-1-({[6-(methylsulfonyl)pyridin-2-yl]oxy}methyl)-6-azaspiro[2.5]octane-6-sulfonamide], for which the EC50 (read-out: α7 nAChR Potency) was 5000 to 50000 nM.

`COc1ccc(Cl)cc1OCC1C(F)(F)C12CCN(S(N)(=O)=O)CC2` (single isomer, unassigned) [Example A2, 2-[(5-chloro-2-methoxyphenoxy)methyl]-1,1-difluoro-6-azaspiro[2.5]octane-6-sulfonamide]: the EC50 by setting is: (read-out: α7 nAChR EC50) 25 nM; (read-out: α7 nAChR Potency) no more than 100 nM.

With `NS(=O)(=O)N1CCC2(CC1)C(COc1cccc(OCC(F)(F)F)c1)C2(F)F` (single isomer, unassigned) [Example A30, 1,1-difluoro-2-{[3-(2,2,2-trifluoroethoxy)phenoxy]methyl}-6-azaspiro[2.5]octane-6-sulfonamide], the EC50 was 58 nM (read-out: α7 nAChR EC50) and no more than 100 nM (read-out: α7 nAChR Potency).

`COc1ccc(Cl)cc1OCC1CC12CCN(S(N)(=O)=O)CC2` (racemic) [Example A42, 1-[(5-chloro-2-methoxyphenoxy)methyl]-6-azaspiro[2.5]octane-6-sulfonamide]: the EC50 runs as follows: (read-out: α7 nAChR EC50) 120 nM; (read-out: α7 nAChR Potency) 100 to 500 nM.

In the case of `COc1cc(OC[C@@H]2CC23CCN(S(N)(=O)=O)CC3)ccc1F` [Example A4, (1R)-1-[(4-fluoro-3-methoxyphenoxy)methyl]-6-azaspiro[2.5]octane-6-sulfonamide], the EC50 (read-out: α7 nAChR Potency) was 500 to 5000 nM.

As for `NS(=O)(=O)N1CCC2(CC1)C[C@@H]2COc1noc(-c2ccccc2)n1` [Example A13, (1S)-1-{[(5-phenyl-1,2,4-oxadiazol-3-yl)oxy]methyl}-6-azaspiro[2.5]octane-6-sulfonamide], the EC50 was 4100 nM (read-out: α7 nAChR EC50) and 500 to 5000 nM (read-out: α7 nAChR Potency).

On to `NS(=O)(=O)N1CCC2(CC1)CC2COc1ccnc(OCC(F)(F)F)c1` (racemic) [Example A32, 1-({[2-(2,2,2-trifluoroethoxy)pyridin-4-yl]oxy}methyl)-6-azaspiro[2.5]octane-6-sulfonamide], for which the EC50 by setting is: (read-out: α7 nAChR EC50) 140 nM; (read-out: α7 nAChR Potency) 100 to 500 nM.

On to `NS(=O)(=O)N1CCC2(CC1)C(/C=C/c1ccc(F)cc1C(F)(F)F)C2(F)F` (centres unmarked) [Example 19, 1,1-Difluoro-2-{(E)-2-[4-fluoro-2-(trifluoromethyl)phenyl]ethenyl}-6-azaspiro[2.5]octane-6-sulfonamide], for which the EC50 by setting is: (read-out: α7 nAChR EC50) 1900 nM; (read-out: α7 nAChR Potency) 500 to 5000 nM.

On to `Cc1cc(C)n(-c2cccc(OC[C@@H]3CC34CCN(S(N)(=O)=O)CC4)n2)n1` [Example A19, (1R)-1-({[6-(3,5-dimethyl-1H-pyrazol-1-yl)pyridin-2-yl]oxy}methyl)-6-azaspiro[2.5]octane-6-sulfonamide], for which the EC50 was 190 nM (read-out: α7 nAChR EC50) and 100 to 500 nM (read-out: α7 nAChR Potency).

As to `NS(=O)(=O)N1CCC2(CC1)C[C@H]2COc1cccnc1OCC(F)(F)F` [Example 8, (1R)-1-({[2-(2,2,2-Trifluoroethoxy)pyridin-3-yl]oxy}methyl)-6-azaspiro[2.5]octane-6-sulfonamide], the EC50 by setting is: (read-out: α7 nAChR EC50) 1200 nM; (read-out: α7 nAChR Potency) 500 to 5000 nM.

On to `CCOc1cccc(OC[C@@H]2CC23CCN(S(N)(=O)=O)CC3)n1` [Example A54, (1R)-1-{[(6-ethoxypyridin-2-yl)oxy]methyl}-6-azaspiro[2.5]octane-6-sulfonamide], for which the EC50 (read-out: α7 nAChR EC50) was determined as 450 nM and the EC50 (read-out: α7 nAChR Potency) lay within 100 to 500 nM.
